Source: patent US20250018049A1, “COMPOUNDS FOR DEGRADING CYCLIN-DEPENDENT KINASE 2 VIA UBIQUITIN PROTEOSOME PATHWAY” (NIKANG THERAPEUTICS, INC., priority 2020, published 2025)

Columns and labels:
Type in all cases: cell-based
CDK2 [1] = target: T1, CDK2 (Homo sapiens, UniProt P24941); assay: Phospho-Rb HTRF measurement in OVCAR3 cells (inhibition of CDK2); parameters: High-Throughput Measurement of Cellular Endogenous CDK2; endogenous in cells; host or cells: OVCAR3; conditions: pRB(S807/811) assay, 24 h compound treatment
Description: Phosphorylation of RB protein at S780 and S807/811 were measured using HTRF phospho-RB cellular kits (Cat #64RBS780PEG and 64RBS807PEG) from Cisbio.
On Day 1, OVCAR3 or KYSE520 cells were seeded into 96-well tissue-culture treated plates at 20,000 cells/well in 200 μL and incubated overnight at 37° C. in CO2 atmosphere. On Day 2, the cells were treated with test compounds at concentrations from 0.3 to 10,000 nM using HP D300 digital dispenser. Twenty-four hours after compound treatment, cell culture media was removed by flicking the plate and tapping the plate against clean paper towel. Immediately 30 μL 1× lysis buffer was supplemented from the kit and the plate was incubated at room temperature on shaker for 30 min. After homogenization by pipetting up and down, 8 μL cell lysate from 96-well cell culture plate was transferred to 384-well small volume white detection plate. 2 μL premixed detection solution was added and the plate was covered with sealer. To prepare the detection solution, d2 conjugated-phospho-RB antibody and Eu-cryptate conjugated phosphor-RB antibody were diluted into detection buffer following manufacturer's instruction. Detection plates were incubated for 4 h at room temperature and read on ClarioStar (BMG Labtech) in TR-FRET mode (665 nM and 620 nM). The TR-FRET ratio (665 nM/620 nM) was plotted against the compound concentration and normalized to DMSO controls. Half maximal inhibition concentration (IC50) values are calculated with a four-parameter logistic fit using GraphPad Prism (version 8; La Jolla, CA).

CDK2 [2] = target: T1, CDK2; assay: NanoBRET CDK2 engagement assay; parameters: expressed in transfected cells; conditions: OVCAR3 cells with stable CDK2-Luciferase vector, 24 hours treatment
Description: OVCAR3 cells with stable transfection of CDK2-Luciferase vector were seeded into 96-well plate at a density of 20,000 cells per well, 50 μL Opti-MEM medium supplemented with 1% FBS. Following morning, cells were treated with compounds of the disclosure, with starting concentration at 3 μM and ½ log dilution down to 0.3 nM for 24 hours at 37° C. DMSO treatment serves as control. Compound engagement was then measured using NanoBRE™ Kinase Kit from Promega (Part Number: CS1810C122, NanoBRET™ TE Kinase Kit #10, 1K) following manufacturer's instruction. For 24 hours treatment, tracer was added only for the last 2 hours. Briefly, 2.5 μL of complete 20× NanoBRET Tracer was added to the cells in suspension. Immediately prior to BRET measurements, prepare 3× Complete NanoBRET® Nano-Glo® Substrate in Opti-MEM without serum and phenol red. Without any delay, 25 μL per well of 3× Complete NanoBRET™ Nano-Glo® Substrate for a 96-well plate was added and mixed well. Signal was then read on a CLARIOstar® plate reader (measure donor emission (e.g., 450 nm) and acceptor emission (e.g., 610 nm or 630 nm) using a NanoBRET™-compatible luminometer. Target engagement was calculated with DMSO treatment as 100% signal, and IC50 was calculated by GraphPad Prism 9.

CDK2 [3] = target: T1, CDK2; assay: CDK2 HTRF assay (cellular endogenous CDK2 level); parameters: High-Throughput Measurement of Cellular Endogenous CDK2; endogenous in cells; host or cells: OVCAR3; conditions: OVCAR-3; OVCAR3 cells, 24 hours, 0.3 to 10,000 nM; read-out: max degradation of CDK2
Description: Effects of compounds on cellular CDK2 level can be monitored by a high-throughput HTRF assay or traditional Western Blot assay.
To determine half maximal degradation concentration (DC50) values of compounds, cellular CDK2 level was measured in 96-well format using HTRF total CDK2 cellular kit (Cat #64CDK2TPEG) from Cisbio.
On Day 1, OVCAR3 cells were seeded into 96-well tissue-culture treated plates at 20,000 cells/well in 200 μL and incubated overnight at 37° C. in CO2 atmosphere. On Day 2 cells were treated with compounds at concentration ranging from 0.3 to 10,000 nM using HP D300 digital dispenser. 24 hours after compound treatment, cell culture media was removed by flicking the plate and tapping the plate against clean paper towel. Immediately 30 μL 1× lysis buffer was supplemented from the kit and the plate was incubated at room temperature on shaker for 30 min. After homogenization by pipetting up and down, 8 μL cell lysate from 96-well cell culture plate was transferred to 384-well small volume white detection plate. 2 μL premixed detection solution was added and the plate was covered with sealer. To prepare the detection solution, d2 conjugated-CDK2 antibody and Eu-cryptate conjugated CDK2 antibody were diluted into detection buffer following manufacturer's instruction. Detection plates were incubated overnight at room temperature and read on ClarioStar (BMG Labtech) in TR-FRET mode (665 nM and 620 nM). The TR-FRET ratio (665 nM/620 nM) was plotted against the compound concentration and normalized to DMSO controls. Half maximal degradation concentration (DC50) values were calculated with a four-parameter logistic fit using GraphPad Prism (version 8; La Jolla, CA). FIG. 1 provides a dose-response curve of Compound 1 in Compound Table I in cellular CDK2 HTRF assay. IC50 in FIG. 1 is the same as DC50. Compounds 1, 13, 16, 22, 23, 28, 34, 35, 36, 37, 38, 39, 42, 48, 50, 51, 53, 54, 55, 56, 57, 58, 59, 60, 61, 62, 63, 65, 66, 68, 69, 70 were tested and max degradation of CDK2 observed was from about 35% to about 90%.

Row | Structure (SMILES) | IC50 (CDK2 [1]) [nM] | IC50 (CDK2 [2]) [nM] | Dmax (CDK2 [3]) [%]
1 | Cn1c(=O)n(C2CCC(=O)NC2=O)c2cccc(C#CCOC3CCN(CC4CCN(S(=O)(=O)N5CCC(Nc6ncc7ccc(=O)n(C8CCCC8)c7n6)CC5)CC4)CC3)c21 (centres unmarked) [Compound 13, 3-(4-(3-((1-((1-((4-((8-cyclopentyl-7-oxo-7,8-dihydropyrido[2,3-d]pyrimidin-2-yl)amino)-piperidin-1-yl)sulfonyl)piperidin-4-yl)methyl)-piperidin-4-yl)oxy)prop-1-yn-1-yl)-3-methyl-2-oxo-2,3-dihydro-1H-benzo[d]imidazol-1-yl)-piperidine-2,6-dione] | 2120 | 292 | 35 to 90
2 | CO[C@H]1CN(S(=O)(=O)c2cccc(CN3CCN(c4cc5c(cc4F)C(=O)N(C4CCC(=O)NC4=O)C5=O)CC3)c2)CC[C@@H]1Nc1ncc2ccc(=O)n(C3CCCC3)c2n1 (stereo partly drawn) [Compound 64, 5-(4-(3-(((3S,4S)-4-((8-cyclopentyl-7-oxo-7,8-dihydropyrido[2,3-d]pyrimidin-2-yl)amino)-3-methoxypiperidin-1-yl)sulfonyl)benzyl)piperazin-1-yl)-2-(2,6-dioxopiperidin-3-yl)-6-fluoro-isoindoline-1,3-dione] | 7940 | 3040 | –
3 | O=C1CCC(N2Cc3cc(CN4CC(Oc5cccc(S(=O)(=O)N6CCC(Nc7ncc8ccc(=O)n(C9CCCC9)c8n7)CC6)c5)C4)ccc3C2=O)C(=O)N1 (centres unmarked) [Compound 67, 3-(5-((3-(3-((4-((8-cyclopentyl-7-oxo-7,8-dihydro-pyrido[2,3-d]pyrimidin-2-yl)amino)piperidin-1-yl)sulfonyl)phenoxy)azetidin-1-yl)methyl)-1-oxoisoindolin-2-yl)piperidine-2,6-dione] | 27 | 150 | –
4 | Cn1nc(N2CCC(=O)NC2=O)c2ccc(C3CCN(Cc4cccc(S(=O)(=O)N5CCC(Nc6ncc7ccc(=O)n(C8CCCC8)c7n6)CC5)c4)CC3)cc21 [Compound 71, 1-(6-(1-(3-((4-((8-cyclopentyl-7-oxo-7,8-dihydropyrido[2,3-d]pyrimidin-2-yl)amino)-piperidin-1-yl)sulfonyl)-benzyl)piperidin-4-yl)-1-methyl-1H-indazol-3-yl)dihydropyrimidine-2,4(1H,3H)-dione] | 10.3 | 167 | –
5 | Cn1c(=O)n(C2CCC(=O)NC2=O)c2cccc(C3CCN(C4CN(c5cccc(S(=O)(=O)N6CCC(Nc7ncc8ccc(=O)n(C9CCCC9)c8n7)CC6)c5)C4)CC3)c21 (centres unmarked) [Compound 72, 3-(4-(1-(1-(3-((4-((8-cyclopentyl-7-oxo-7,8-dihydropyrido[2,3-d]pyrimidin-2-yl)amino)-piperidin-1-yl)sulfonyl)phenyl)azetidin-3-yl)piperidin-4-yl)-3-methyl-2-oxo-2,3-dihydro-1H-benzo[d]imidazol-1-yl)piperidine-2,6-dione] | 355 | 425 | –
6 | O=C(COc1cccc2c1C(=O)N(C1CCC(=O)NC1=O)C2=O)NCCOCCOCCN1CCN(S(=O)(=O)N2CCC(Nc3ncc4ccc(=O)n(C5CCCC5)c4n3)CC2)CC1 (centres unmarked) [compound 2, N-(2-(2-(2-(4-((4-((8-cyclopentyl-7-oxo-7,8-dihydropyrido[2,3-d]pyrimidin-2-yl)amino)-piperidin-1-yl)sulfonyl)piperazin-1-yl)-ethoxy)ethoxy)ethyl)-2-((2-(2,6-dioxo-piperidin-3-yl)-1,3-dioxoisoindolin-4-yl)-oxy)acetamide] | 1280 | 1310 | –
7 | O=C(COc1cccc2c1C(=O)N(C1CCC(=O)NC1=O)C2=O)NCCOCCN1CCN(S(=O)(=O)N2CCC(Nc3ncc4ccc(=O)n(C5CCCC5)c4n3)CC2)CC1 (centres unmarked) [compound 3, N-(2-(2-(4-((4-((8-cyclopentyl-7-oxo-7,8-dihydropyrido[2,3-d]pyrimidin-2-yl)amino)-piperidin-1-yl)sulfonyl)piperazin-1-yl)-ethoxy)ethyl)-2-((2-(2,6-dioxopiperidin-3-yl)-1,3-dioxoisoindolin-4-yl)oxy)acetamide] | 2670 | 3040 | –
8 | CN1C(=O)CCC(N2C(=O)c3cccc(OCC(=O)NCCOCCN4CCN(S(=O)(=O)N5CCC(Nc6ncc7ccc(=O)n(C8CCCC8)c7n6)CC5)CC4)c3C2=O)C1=O (centres unmarked) [compound 5, N-(2-(2-(4-((4-((8-cyclopentyl-7-oxo-7,8-dihydropyrido[2,3-d]pyrimidin-2-yl)amino)-piperidin-1-yl)sulfonyl)piperazin-1-yl)-ethoxy)ethyl)-2-((2-(1-methyl-2,6-dioxo-piperidin-3-yl)-1,3-dioxoisoindolin-4-yl)oxy)acetamide] | 5860 | 4110 | –
9 | O=C(COc1cccc2c1C(=O)N(C1CCC(=O)NC1=O)C2=O)NCCOCCOCCOCCOCCN1CCN(S(=O)(=O)N2CCC(Nc3ncc4ccc(=O)n(C5CCCC5)c4n3)CC2)CC1 (centres unmarked) [compound 6, N-(14-(4-((4-((8-cyclopentyl-7-oxo-7,8-dihydro-pyrido[2,3-d]pyrimidin-2-yl)amino)-piperidin-1-yl)sulfonyl)piperazin-1-yl)-3,6,9,12-tetraoxatetradecyl)-2-((2-(2,6-dioxopiperidin-3-yl)-1,3-dioxoisoindolin-4-yl)oxy)acetamide] | 2250 | 1670 | –
10 | O=C1CCC(N2C(=O)c3ccc(N4CC(Oc5ccc(S(=O)(=O)N6CCC(Nc7ncc8ccc(=O)n(C9CCCC9)c8n7)CC6)cc5)C4)cc3C2=O)C(=O)N1 (centres unmarked) [compound 7, 5-(3-(4-((4-((8-cyclopentyl-7-oxo-7,8-dihydro-pyrido[2,3-d]pyrimidin-2-yl)amino)piperidin-1-yl)sulfonyl)phenoxy)azetidin-1-yl)-2-(2,6-dioxopiperidin-3-yl)isoindoline-1,3-dione] | 1120 | 99.9 | –
11 | O=C1CCC(N2C(=O)c3ccc(CN4CC(Oc5ccc(S(=O)(=O)N6CCC(Nc7ncc8ccc(=O)n(C9CCCC9)c8n7)CC6)cc5)C4)cc3C2=O)C(=O)N1 (centres unmarked) [compound 8, 5-((3-(4-((4-((8-cyclopentyl-7-oxo-7,8-dihydro-pyrido[2,3-d]pyrimidin-2-yl)amino)piperidin-1-yl)sulfonyl)phenoxy)azetidin-1-yl)methyl)-2-(2,6-dioxopiperidin-3-yl)isoindoline-1,3-dione] | 438 | 257 | –
